A value given as a limit tells only on which side of the number the result lay.

Chain of truncated PI3Kα (p110α/iSH2 p85α) (P42336 whole entry, the tested form may be a part): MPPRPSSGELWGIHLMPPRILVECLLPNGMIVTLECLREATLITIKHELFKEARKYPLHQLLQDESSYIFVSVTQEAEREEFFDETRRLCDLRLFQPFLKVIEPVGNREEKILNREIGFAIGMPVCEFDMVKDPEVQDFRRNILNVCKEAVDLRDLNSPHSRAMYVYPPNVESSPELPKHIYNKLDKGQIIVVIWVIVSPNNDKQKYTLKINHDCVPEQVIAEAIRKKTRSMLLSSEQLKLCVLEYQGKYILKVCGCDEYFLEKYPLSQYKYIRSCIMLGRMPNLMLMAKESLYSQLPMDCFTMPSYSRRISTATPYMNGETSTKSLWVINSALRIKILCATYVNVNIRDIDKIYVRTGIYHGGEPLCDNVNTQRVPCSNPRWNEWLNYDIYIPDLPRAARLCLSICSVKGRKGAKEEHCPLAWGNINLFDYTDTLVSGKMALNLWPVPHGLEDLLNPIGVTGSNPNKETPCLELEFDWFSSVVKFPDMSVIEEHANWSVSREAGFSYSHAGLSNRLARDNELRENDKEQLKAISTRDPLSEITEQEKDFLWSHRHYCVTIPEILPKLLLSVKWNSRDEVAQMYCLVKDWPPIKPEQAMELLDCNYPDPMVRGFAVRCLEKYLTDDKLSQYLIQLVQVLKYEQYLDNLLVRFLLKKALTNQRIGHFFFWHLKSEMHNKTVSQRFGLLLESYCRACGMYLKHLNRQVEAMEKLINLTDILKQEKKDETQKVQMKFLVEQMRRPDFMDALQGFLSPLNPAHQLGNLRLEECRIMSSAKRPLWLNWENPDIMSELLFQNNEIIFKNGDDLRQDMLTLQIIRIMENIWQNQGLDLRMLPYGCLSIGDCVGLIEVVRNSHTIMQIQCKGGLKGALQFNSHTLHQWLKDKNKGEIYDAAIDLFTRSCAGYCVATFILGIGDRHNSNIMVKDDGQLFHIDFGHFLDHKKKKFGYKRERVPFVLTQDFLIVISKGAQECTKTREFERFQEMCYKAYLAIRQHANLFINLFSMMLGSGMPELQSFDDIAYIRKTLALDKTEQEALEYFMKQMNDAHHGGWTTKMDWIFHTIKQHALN

The experiment has as its target truncated PI3Kα (p110α/iSH2 p85α) (Homo sapiens (Human), UniProt P42336). Put plainly: PI3KA_Act fluorescence polarization kinase assay (Ki). It is filed as biochemical. As to conditions: 1 mM ATP. In outline:
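Ki values result from fitting fluorescence polarization signals to the Morrison equation for tight-binding competitive inhibitors. The detector was GST-Grp1 PH domain with TAMRA-PIP3, read after a 30 min room-temperature reaction of 0.5 nM truncated PI3Kα and 30 μM PIP2 at pH 7.4 in HEPES/NaCl/MgCl2/DTT/CHAPS buffer. Compounds were tested as 12-point 3-fold dilutions from 3 μM.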
(In general: Fluorescence polarisation rises when a labelled molecule tumbles more slowly, as on binding a larger partner.)
For `C[C@]1(N2CCc3c(-c4cnc(N)nc4)nc(N4CCOCC4)nc32)CCN(C(=O)CC#N)C1` [Example 265, 3-{(3S)-3-[4-(2-aminopyrimidin-5-yl)-2-(morpholin-4-yl)-5,6-dihydro-7H-pyrrolo[2,3-d]pyrimidin-7-yl]-3-methylpyrrolidin-1-yl}-3-oxopropanenitrile], the “PI3KA_Act Ki” value amounted to 0.048 nM.

`CNC(=O)N1CC[C@@](C)(N2CCc3c(-c4cnc(N)nc4)nc(N4CCOCC4)nc32)C1` [Example 2, (3R)-3-[4-(2-aminopyrimidin-5-yl)-2-(morpholin-4-yl)-5,6-dihydro-7H-pyrrolo[2,3-d]pyrimidin-7-yl]-N,3-dimethylpyrrolidine-1-carboxamide]: the “PI3KA_Act Ki” value turned out to be 0.160 nM.

`CCOC(=O)N1CC[C@](C)(N2CCc3c(-c4cnc(N)nc4)nc(N4CCOCC4)nc32)C1` [Example 405, ethyl (3S)-3-[4-(2-aminopyrimidin-5-yl)-2-(morpholin-4-yl)-5,6-dihydro-7H-pyrrolo[2,3-d]pyrimidin-7-yl]-3-methylpyrrolidine-1-carboxylate]: the “PI3KA_Act Ki” value is recorded as less than 0.018 nM.

Turning to `C[C@]1(N2CCc3c(-c4cnc(N)nc4)nc(N4CCOCC4)nc32)CCN(S(C)(=O)=O)C1` [Example 149], the “PI3KA_Act Ki” value is given as 0.027 nM.

For the compound `C[C@@]1(N2CCc3c(-c4cnc(N)nc4)nc(N4CCOCC4)nc32)CCN(C(=O)C2CCC2)C1` [Example 342, {(3R)-3-[4-(2-aminopyrimidin-5-yl)-2-(morpholin-4-yl)-5,6-dihydro-7H-pyrrolo[2,3-d]pyrimidin-7-yl]-3-methylpyrrolidin-1-yl}(cyclobutyl)meth-anone], the “PI3KA_Act Ki” value stood at 0.141 nM.

`C[C@H]1COCCN1c1nc(-c2cnc(N)nc2)c2c(n1)N([C@@]1(C)CCN(C(=O)[C@@H](N)C(F)(F)F)C1)CC2.Cl` [Example 490, (2R)-2-amino-1-[(3S)-3-{4-(2-aminopyrimidin-5-yl)-2-[(3S)-3-methylmorpholin-4-yl]-5,6-dihydro-7H-pyrrolo[2,3-d]pyrimidin-7-yl}-3-methylpyrrolidin-1-yl]-3,3,3-trifluoropropan-1-one hydrochloride]: the “PI3KA_Act Ki” value is given as less than 0.018 nM.

For `C[C@H]1COCCN1c1nc(-c2cnc(N)nc2)c2c(n1)N([C@H]1CCN(C(=O)NC(C)(C)C)C1)CC2` [Example 140], the “PI3KA_Act Ki” value came out at 0.318 nM.

Regarding `CNCC(=O)N1CC[C@](C)(N2CCc3c(-c4cnc(N)nc4)nc(N4CCOCC4)nc32)C1` [Example 298, 1-{(3S)-3-[4-(2-aminopyrimidin-5-yl)-2-(morpholin-4-yl)-5,6-dihydro-7H-pyrrolo[2,3-d]pyrimidin-7-yl]-3-methylpyrrolidin-1-yl}-2-(methylamino)ethanone], the “PI3KA_Act Ki” value was less than 0.018 nM.

In the case of `COC(=O)C(C)(C)N1CC[C@](C)(N2CCc3c(-c4cnc(N)nc4)nc(N4CCOCC4)nc32)C1` [Example 423, methyl 2-{(3S)-3-[4-(2-aminopyrimidin-5-yl)-2-(morpholin-4-yl)-5,6-dihydro-7H-pyrrolo[2,3-d]pyrimidin-7-yl]-3-methylpyrrolidin-1-yl}-2-methylpropanoate], the “PI3KA_Act Ki” value turned out to be 0.445 nM.

Regarding `C[C@]1(N2CCc3c(-c4cnc(N)nc4)nc(N4CCOCC4)nc32)CCN(C(=O)[C@H]2CC2(F)F)C1` [Example 336, {(3S)-3-[4-(2-aminopyrimidin-5-yl)-2-(morpholin-4-yl)-5,6-dihydro-7H-pyrrolo[2,3-d]pyrimidin-7-yl]-3-methylpyrrolidin-1-yl}[(1R)-2,2-difluorocyclopropyl] methanone], the “PI3KA_Act Ki” value is listed as 0.054 nM.

With `CN1CC[C@](C)(N2CCc3c(-c4cnc(N)nc4)nc(N4CCOCC4)nc32)C1` [Example 418, 5-{7-[(3S)-1,3-dimethylpyrrolidin-3-yl]-2-(morpholin-4-yl)-6,7-dihydro-5H-pyrrolo[2,3-d]pyrimidin-4-yl}pyrimidin-2-amine], the “PI3KA_Act Ki” value worked out at 0.320 nM.

Regarding `COC(=O)C(C)(C)N1CCc2c(-c3cnc(N)nc3)nc(N3CCOCC3)nc21` [Example 165], the “PI3KA_Act Ki” value came to 0.449 nM.

Turning to `CNC(=N)N1CC[C@](C)(N2CCc3c(-c4cnc(N)nc4)nc(N4CCOC[C@@H]4C)nc32)C1` [Example 504, (3S)-3-{4-(2-aminopyrimidin-5-yl)-2-[(3S)-3-methylmorpholin-4-yl]-5,6-dihydro-7H-pyrrolo[2,3-d]pyrimidin-7-yl}-N,3-dimethylpyrrolidine-1-carboximidamide], the “PI3KA_Act Ki” value turned out to be 0.109 nM.

`CC(C)(N)COC(=O)N1CC[C@](C)(N2CCc3c(-c4cnc(N)nc4)nc(N4CCOCC4)nc32)C1.Cl` [Example 412, 2-amino-2-methylpropyl (3S)-3-[4-(2-aminopyrimidin-5-yl)-2-(morpholin-4-yl)-5,6-dihydro-7H-pyrrolo[2,3-d]pyrimidin-7-yl]-3-methylpyrrolidine-1-carboxylate hydrochloride]: the “PI3KA_Act Ki” value is reported as less than 0.018 nM.

In the case of `C[C@]1(N2CCc3c(-c4cnc(N)nc4)nc(N4CCOCC4)nc32)CCN(C(=O)C2CC2)C1` [Example 328, {(3S)-3-[4-(2-aminopyrimidin-5-yl)-2-(morpholin-4-yl)-5,6-dihydro-7H-pyrrolo[2,3-d]pyrimidin-7-yl]-3-methylpyrrolidin-1-yl}(cyclopropyl) methanone], the “PI3KA_Act Ki” value is given as 0.024 nM.

On to `COC1CN(C(=O)N2CC[C@@](C)(N3CCc4c(-c5cnc(N)nc5)nc(N5CCOCC5)nc43)C2)C1` [Example 368, {(3R)-3-[4-(2-aminopyrimidin-5-yl)-2-(morpholin-4-yl)-5,6-dihydro-7H-pyrrolo[2,3-d]pyrimidin-7-yl]-3-methylpyrrolidin-1-yl}(3-methoxyazetidin-1-yl)methanone], for which the “PI3KA_Act Ki” value was found to be 0.127 nM.

Turning to `Cn1nccc1C(=O)N1CC[C@](C)(N2CCc3c(-c4cnc(N)nc4)nc(N4CCOCC4)nc32)C1` [Example 385, {(3S)-3-[4-(2-aminopyrimidin-5-yl)-2-(morpholin-4-yl)-5,6-dihydro-7H-pyrrolo[2,3-d]pyrimidin-7-yl]-3-methylpyrrolidin-1-yl}(1-methyl-1H-pyrazol-5-yl)methanone], the “PI3KA_Act Ki” value was less than 0.018 nM.

Turning to `CC(C)(C)OC(=O)N1CC(C)(N2CCc3c(-c4cnc(N)nc4)nc(N4CCOCC4)nc32)C1` [Example 249, tert-butyl 3-[4-(2-aminopyrimidin-5-yl)-2-(morpholin-4-yl)-5,6-dihydro-7H-pyrrolo[2,3-d]pyrimidin-7-yl]-3-methylazetidine-1-carboxylate], the “PI3KA_Act Ki” value is 0.019 nM.

`CNC(C)(C)C(=O)N1CC[C@](C)(N2CCc3c(-c4cnc(N)nc4)nc(N4CCOC[C@@H]4C)nc32)C1.Cl` [Example 488, 1-[(3S)-3-{4-(2-aminopyrimidin-5-yl)-2-[(3S)-3-methylmorpholin-4-yl]-5,6-dihydro-7H-pyrrolo[2,3-d]pyrimidin-7-yl}-3-methylpyrrolidin-1-yl]-2-methyl-2-(methylamino)propan-1-one hydrochloride]: the “PI3KA_Act Ki” value is reported as less than 0.018 nM.

With `CC(C)S(=O)(=O)N1CC(C)(N2CCc3c(-c4cnc(N)nc4)nc(N4CCOC[C@@H]4C)nc32)C1` [Example 204], the “PI3KA_Act Ki” value was less than 0.018 nM.

As to `CC(C)(C(=O)O)C(=O)N1CC[C@](C)(N2CCc3c(-c4cnc(N)nc4)nc(N4CCOCC4)nc32)C1` [Example 319, 3-{(3S)-3-[4-(2-aminopyrimidin-5-yl)-2-(morpholin-4-yl)-5,6-dihydro-7H-pyrrolo[2,3-d]pyrimidin-7-yl]-3-methylpyrrolidin-1-yl}-2,2-dimethyl-3-oxopropanoic acid], the “PI3KA_Act Ki” value is reported as 2.266 nM.

For the compound `C[C@H]1COCCN1c1nc(-c2cnc(N)nc2)c2c(n1)N(C1(C)CN(C(=O)OC(C)(C)C)C1)CC2` [Example 461, tert-butyl 3-{4-(2-aminopyrimidin-5-yl)-2-[(3S)-3-methylmorpholin-4-yl]-5,6-dihydro-7H-pyrrolo[2,3-d]pyrimidin-7-yl}-3-methylazetidine-1-carboxylate], the “PI3KA_Act Ki” value is recorded as 0.040 nM.

Consider `C[C@@H]1COCCN1c1nc(-c2cnc(N)nc2)c2c(n1)N(C1(C)CCN(C(=O)OC(C)(C)C)C1)CC2` (stereo partly shown) [Example 228], for which the “PI3KA_Act Ki” value was determined as 0.164 nM.

In the case of `CN1CC[C@@H]1C(=O)N1CC[C@](C)(N2CCc3c(-c4cnc(N)nc4)nc(N4CCOCC4)nc32)C1` [Example 353, {(3S)-3-[4-(2-aminopyrimidin-5-yl)-2-(morpholin-4-yl)-5,6-dihydro-7H-pyrrolo[2,3-d]pyrimidin-7-yl]-3-methylpyrrolidin-1-yl}[(2R)-1-methylazetidin-2-yl]methanone], the “PI3KA_Act Ki” value was determined as 0.078 nM.

Take `CC(C)(C(N)=O)C(=O)N1CC[C@](C)(N2CCc3c(-c4cnc(N)nc4)nc(N4CCOCC4)nc32)C1` [Example 318, 3-{(3S)-3-[4-(2-aminopyrimidin-5-yl)-2-(morpholin-4-yl)-5,6-dihydro-7H-pyrrolo[2,3-d]pyrimidin-7-yl]-3-methylpyrrolidin-1-yl}-2,2-dimethyl-3-oxopropanamide]: the “PI3KA_Act Ki” value was determined as 0.076 nM.

As for `CCOC(=O)C(C)(C)N1CCc2c(-c3cnc(N)nc3)nc(N3CCOC[C@@H]3C)nc21` [Example 200], the “PI3KA_Act Ki” value turned out to be 0.909 nM.

As to `COC1CN(C(=O)N2CC[C@](C)(N3CCc4c(-c5cnc(N)nc5)nc(N5CCOC[C@@H]5C)nc43)C2)C1` [Example 498, [(3S)-3-{4-(2-aminopyrimidin-5-yl)-2-[(3S)-3-methylmorpholin-4-yl]-5,6-dihydro-7H-pyrrolo[2,3-d]pyrimidin-7-yl}-3-methylpyrrolidin-1-yl](3-methoxyazetidin-1-yl)methanone], the “PI3KA_Act Ki” value turned out to be 0.048 nM.

Turning to `C[C@]1(N2CCc3c(-c4cnc(N)nc4)nc(N4CCOCC4)nc32)CCN(C(=O)C2(O)CCC2)C1` [Example 343, {(3S)-3-[4-(2-aminopyrimidin-5-yl)-2-(morpholin-4-yl)-5,6-dihydro-7H-pyrrolo[2,3-d]pyrimidin-7-yl]-3-methylpyrrolidin-1-yl}(1-hydroxycyclobutyl) methanone], the “PI3KA_Act Ki” value worked out at 0.089 nM.

(Values after US9260439B2, “Dihydropyrrolopyrimidine derivatives” (PFIZER INC., priority 2014, dated 2016).)
